According to paper PMC4821887, “Identification of chemicals that mimic transcriptional changes associated with autism, brain aging and neurodegeneration” (Nature Communications, 2016):
Where a name gives a salt, the structure may show the parent alone. Read-outs that look alike come from different tables or passages of the source.

Experiments:
[1] = system: mouse cortical neuron-enriched cultures; experiment: RNA-seq transcriptional screen with hierarchical clustering and cluster membership; type: cell-based; conditions: for Chemical cluster assigned by gene expression: 24 h at non-toxic concentration, hierarchical clustering of 5,121 variably expressed genes; for Transcriptional change relative to the cluster 2 signature: RNA-seq, Supplementary Fig. 9
Protocol: Cultures were treated with the non-cytotoxic dose of each chemical, by exchanging half of the original medium with chemicals at 2 × concentration in prewarmed feeding medium, on DIV 7 for 24 h in 12-well plates at a density of 5 × 10^5 cells per well. RNA was isolated using RNeasy plus mini kit (Cat. #74134, Qiagen). RNA yield and quality were determined using a Nanodrop 1000 Spectrophotometer (Thermo Scientific). Samples were further assessed for quality using either an Agilent Bioanalyzer 2100 or TapeStation 2200 to obtain a RIN. RIN values exceeding 7 were used for sequencing. RNA samples were used to generate and barcode complementary DNA libraries using the TruSeq RNA Library Preparation Kit at the UNC High Throughput Sequencing Facility. Pools of 24 multiplexed samples were sequenced per lane on an Illumina HiSeq 2500 using 50-bp paired-end reads.
RNA-seq reads were filtered using TagDust and aligned to the reference mouse genome (mm9) with TopHat using default parameters. Reads aligning to ribosomal RNA genes were removed. Transcript abundance was estimated by computing Reads per kilobase per million mapped reads (RPKM) using RefSeq gene models aggregated by gene symbol. For differential expression analyses, raw counts over RefSeq exons were used, and then were compared across samples using DESeq[62].
RPKMs for all RefSeq genes and all samples were filtered such that a given gene had >90% of samples with RPKM >0 and gene length exceeded 500 bp. RPKMs were then log10-transformed, quantile-normalized, median-centred, and the effects due to culture or sequencing batch were removed using a mixed model analysis of variance. This batch correction step was performed on individual experiments rather than chemical–vehicle ratios to reduce the effects due to variations in culture composition as well as batch-to-batch variations at the level of sequencing. Genes were then median-centred again, and filtered such that their s.d. exceeded 0.1. Chemical replicates were then combined using the median. Classes of chemicals were then discovered in two ways. First, we performed hierarchical clustering using average linkage and Pearson correlation distance measures. The boundaries of the discovered classes from clustering were set by computing pairwise Spearman correlations for all samples. A given cluster had to have at least three members with the minimum pairwise Spearman correlation coefficient exceeding 0.2, though cluster members often exceeded a correlation of 0.6 (Supplementary Fig. 5c,d). Seven chemical clusters were discovered, however one was removed due to failing to have a positive silhouette width, a metric of cluster robustness. These definitions enabled the three positive control topoisomerase inhibitors to form a cohesive group of chemicals with known structural and functional similarity (cluster 5). None of the culture or sequencing batches contributed to the formation of any one of the final six clusters (Supplementary Fig. 4).

[2] = system: mouse cortical neuron cultures

Structure (SMILES): CC(C)(C)c1ccc(CSc2cnn(C(C)(C)C)c(=O)c2Cl)cc1 [pyridaben]
- Chemical cluster assigned by gene expression [1]: cluster 2

Structure (SMILES): CO/C(=C/C(N)=O)[C@H](C)[C@H](/C=C/c1csc(-c2csc([C@@H](C)/C=C/C=C/C(C)C)n2)n1)OC [myxothiazol, reference compound]
- Transcriptional change relative to the cluster 2 signature [1]: altered transcription in a manner consistent with chemicals in cluster 2

Structure (SMILES): CON=C(C(=O)OC)c1ccccc1CON=C(C)c1cccc(C(F)(F)F)c1 [trifloxystrobin]
- % Dead cells (vehicle subtracted) ([2]; mouse, 24 h, 10 µM): 7.404%
- Chemical cluster assigned by gene expression [1]: cluster 2

Structure (SMILES): CO/N=C(/C(=O)OC)c1ccccc1COc1ccccc1C [kresoxim-methyl]
- Transcriptional change relative to the cluster 2 signature [1]: altered transcription in a manner consistent with chemicals in cluster 2

Structure (SMILES): C[C@@]1(c2ccc(Oc3ccccc3)cc2)OC(=O)N(Nc2ccccc2)C1=O (racemic) [famoxadone]
- % Dead cells (vehicle subtracted) [2]: 1.213%
- Chemical cluster assigned by gene expression [1]: cluster 2

Structure (SMILES): CC(C)(C)C(=O)C(Oc1ccc(Cl)cc1)n1cncn1 (centres unmarked) [Triadimefon]
- % Dead cells (vehicle subtracted) [2]: -0.7492%

Structure (SMILES): CNC(=O)/C=C(\C)OP(=O)(OC)OC
- % Dead cells (vehicle subtracted) [2]: -1.862%

Structure (SMILES): CCc1cccc(C)c1N(C(=O)CCl)C(C)COC (centres unmarked) [Metolachlor]
- % Dead cells (vehicle subtracted) [2]: -3.586%

Structure (SMILES): COc1ccc(-c2ccccc2)cc1NNC(=O)OC(C)C [Bifenazate]
- % Dead cells (vehicle subtracted) ([2]; mouse, 24 h, 10 µM): 0.1333%

Structure (SMILES): CCOC(=O)NC(=S)Nc1ccccc1NC(=S)NC(=O)OCC [Thiophanate]
- % Dead cells (vehicle subtracted) ([2]; mouse, 24 h, 10 µM): -1.666%

Structure (SMILES): C[C@@H]1[C@@H](c2ccc(Cl)cc2)SC(=O)N1C(=O)NC1CCCCC1 [Hexythiazox]
- % Dead cells (vehicle subtracted) [2]: 0.5871%

Structure (SMILES): CC(C)Oc1cc(-n2nc(C(C)(C)C)oc2=O)c(Cl)cc1Cl [Oxadiazon]
- % Dead cells (vehicle subtracted) ([2]; mouse, 24 h, 10 µM): 5.6039%

Structure (SMILES): O=S(=O)(O)C(F)(F)C(F)(F)C(F)(F)C(F)(F)C(F)(F)C(F)(F)C(F)(F)C(F)(F)F [Perfluorooctane sulfonic acid]
- % Dead cells (vehicle subtracted) [2]: 6.21%

Structure (SMILES): CCC(C)(C)C(=O)OC1=C(c2ccc(Cl)cc2Cl)C(=O)OC12CCCCC2 [Spirodiclofen]
- % Dead cells (vehicle subtracted) [2]: 1.699%

Structure (SMILES): Cl[C@H]1[C@H](Cl)[C@@H](Cl)[C@@H](Cl)[C@H](Cl)[C@H]1Cl [Lindane]
- % Dead cells (vehicle subtracted) [2]: 3.537%

Structure (SMILES): CC(C)N(C(=O)SCC(Cl)=C(Cl)Cl)C(C)C [Tri-allate]
- % Dead cells (vehicle subtracted) [2]: 1.844%

Structure (SMILES): CC(C)=CC1C(C(=O)OCN2C(=O)C3=C(CCCC3)C2=O)C1(C)C (centres unmarked) [Tetramethrin]
- % Dead cells (vehicle subtracted) [2]: -2.018%

Structure (SMILES): COP(=O)(NC(C)=O)SC (centres unmarked) [Acephate]
- % Dead cells (vehicle subtracted) [2]: -1.8111%

Structure (SMILES): CCOC(=O)C(C)Oc1ccc(Oc2cnc3cc(Cl)ccc3n2)cc1 (centres unmarked) [Quizalofop-ethyl]
- % Dead cells (vehicle subtracted) ([2]; mouse, 24 h, 10 µM): -4.709%

Structure (SMILES): NCCO.O=C(O)c1nc(Cl)ccc1Cl [Clopyralid-olamine]
- % Dead cells (vehicle subtracted) [2]: 0.5713%

Structure (SMILES): CCN(Cc1c(F)cccc1Cl)c1c([N+](=O)[O-])cc(C(F)(F)F)cc1[N+](=O)[O-] [Flumetralin]
- % Dead cells (vehicle subtracted) [2]: 1.368%

Structure (SMILES): CCCCOC(=O)c1ccccc1C(=O)O
- % Dead cells (vehicle subtracted) [2]: 5.2539%

Structure (SMILES): N#CSCSc1nc2ccccc2s1
- % Dead cells (vehicle subtracted) [2]: -1.603%

Structure (SMILES): O=C(O)COc1nc(Cl)c(Cl)cc1Cl [Triclopyr]
- % Dead cells (vehicle subtracted) [2]: -0.8572%

Structure (SMILES): CC1(C(=O)Nc2ccc(O)c(Cl)c2Cl)CCCCC1 [Fenhexamid]
- % Dead cells (vehicle subtracted) ([2]; mouse, 24 h, 10 µM): -0.6431%

Structure (SMILES): Cc1ccc(-c2c(Cl)nc(C#N)n2S(=O)(=O)N(C)C)cc1 [Cyazofamid]
- % Dead cells (vehicle subtracted) ([2]; mouse, 24 h, 10 µM): -1.678%

Structure (SMILES): COC(=O)C=C(C)OP(=O)(OC)OC
- % Dead cells (vehicle subtracted) [2]: -2.439%

Structure (SMILES): COc1cnc(OC)n2nc(NS(=O)(=O)c3c(OCC(F)F)cccc3C(F)(F)F)nc12 [Penoxsulam]
- % Dead cells (vehicle subtracted) ([2]; mouse, 24 h, 10 µM): -0.3089%

Structure (SMILES): COC(=O)c1ccccc1C(=O)O [Methyl hydrogen phthalate]
- % Dead cells (vehicle subtracted) [2]: 1.938%

Structure (SMILES): Cc1[nH]c(=O)n(C(C)(C)C)c(=O)c1Cl [Terbacil]
- % Dead cells (vehicle subtracted) ([2]; mouse, 24 h, 10 µM): 6.548%

Structure (SMILES): Nc1c(Cl)c(Cl)nc(C(=O)O)c1Cl [Picloram]
- % Dead cells (vehicle subtracted) [2]: 3.752%

Structure (SMILES): O=[N+]([O-])c1c(Cl)c(Cl)c(Cl)c(Cl)c1Cl [Quintozene]
- % Dead cells (vehicle subtracted) [2]: -2.206%

Structure (SMILES): COc1cc(OC)nc(NC(=O)[N-]S(=O)(=O)c2ncccc2OCC(F)(F)F)n1.[Na+] [Trifloxysulfuron-sodium]
- % Dead cells (vehicle subtracted) [2]: 0.5929%

Structure (SMILES): CNC(=O)O/N=C(\SC)C(=O)N(C)C [Oxamyl]
- % Dead cells (vehicle subtracted) [2]: -2.835%

Structure (SMILES): CCCCOC(=O)c1ccccc1C(=O)OCCCC [Dibutyl phthalate]
- % Dead cells (vehicle subtracted) ([2]; mouse, 24 h, 10 µM): -2.722%

Structure (SMILES): COC(=O)NS(=O)(=O)c1ccc(N)cc1 [Asulam]
- % Dead cells (vehicle subtracted) ([2]; mouse, 24 h, 10 µM): 1.255%

Structure (SMILES): CCOP(=S)(OCC)SCn1c(=O)oc2cc(Cl)ccc21 [Phosalone]
- % Dead cells (vehicle subtracted) [2]: 3.318%

Structure (SMILES): CCOP(=S)(OCC)Oc1cc(C)nc(C(C)C)n1 [Diazinon]
- % Dead cells (vehicle subtracted) [2]: 0.1738%

Structure (SMILES): C/C(=N\C#N)N(C)Cc1ccc(Cl)nc1 [Acetamiprid]
- % Dead cells (vehicle subtracted) [2]: 2.983%

Structure (SMILES): Nc1nc(N)nc(NC2CC2)n1 [Cyromazine]
- % Dead cells (vehicle subtracted) ([2]; mouse, 24 h, 10 µM): -4.3436%

Structure (SMILES): OCCOc1ccccc1 [Phenoxyethanol [2-Phenoxyethanol]]
- % Dead cells (vehicle subtracted) [2]: 4.907%

Structure (SMILES): CCOC(=O)CC(SP(=S)(OC)OC)C(=O)OCC (centres unmarked) [Malathion]
- % Dead cells (vehicle subtracted) [2]: -1.492%

Structure (SMILES): Cc1nn(-c2cc(NS(C)(=O)=O)c(Cl)cc2Cl)c(=O)n1C(F)F [Sulfentrazone]
- % Dead cells (vehicle subtracted) ([2]; mouse, 24 h, 10 µM): -1.513%

Structure (SMILES): CC(C)(C)C(O)C(Oc1ccc(Cl)cc1)n1cncn1 (centres unmarked) [Triadimenol]
- % Dead cells (vehicle subtracted) ([2]; mouse, 24 h, 10 µM): 2.51%

Structure (SMILES): CN(C)C(=O)Nc1cccc(C(F)(F)F)c1 [Fluometuron]
- % Dead cells (vehicle subtracted) ([2]; mouse, 24 h, 10 µM): 0.2278%

Structure (SMILES): CCC(=O)Nc1ccc(Cl)c(Cl)c1 [Propanil]
- % Dead cells (vehicle subtracted) [2]: -3.018%

Structure (SMILES): CNC(=O)Oc1cccc(N=CN(C)C)c1 [Formetanate hydrochloride]
- % Dead cells (vehicle subtracted) [2]: 1.887%

Structure (SMILES): O=C(O)CCCOc1ccc(Cl)cc1Cl
- % Dead cells (vehicle subtracted) [2]: -0.3394%

Structure (SMILES): CCOC1Oc2ccc(OS(C)(=O)=O)cc2C1(C)C (centres unmarked) [Ethofumesate]
- % Dead cells (vehicle subtracted) [2]: -0.3872%

Structure (SMILES): CCOCN(C(=O)CCl)c1c(C)cccc1CC [Acetochlor]
- % Dead cells (vehicle subtracted) ([2]; mouse, 24 h, 10 µM): 2.3535%

Structure (SMILES): FC(F)C(F)(F)OCC(Cn1cncn1)c1ccc(Cl)cc1Cl (centres unmarked) [Tetraconazole]
- % Dead cells (vehicle subtracted) ([2]; mouse, 24 h, 10 µM): 2.833%

Structure (SMILES): CCSC(=O)N1CCCCCC1 [Molinate]
- % Dead cells (vehicle subtracted) [2]: 7.609%

Structure (SMILES): CCC(CC)Nc1c([N+](=O)[O-])cc(C)c(C)c1[N+](=O)[O-] [Pendimethalin]
- % Dead cells (vehicle subtracted) [2]: 0.8617%

Structure (SMILES): O=C(O)c1c(Cl)ccc2cc(Cl)cnc12 [Quinclorac]
- % Dead cells (vehicle subtracted) [2]: -1.41%

Structure (SMILES): CN(C)C(=O)Nc1ccc(Cl)c(Cl)c1 [Diuron]
- % Dead cells (vehicle subtracted) [2]: -0.632%

Structure (SMILES): O=C(Nc1ccccc1-c1ccc(Cl)cc1)c1cccnc1Cl [Boscalid]
- % Dead cells (vehicle subtracted) ([2]; mouse, 24 h, 10 µM): -4.045%

Structure (SMILES): CCCCSP(=O)(SCCCC)SCCCC [Tribufos]
- % Dead cells (vehicle subtracted) [2]: -0.3794%

Structure (SMILES): O=c1ccc(=O)[nH][nH]1 [Maleic hydrazide]
- % Dead cells (vehicle subtracted) [2]: 7.215%

Structure (SMILES): CCCCN(CC)c1c([N+](=O)[O-])cc(C(F)(F)F)cc1[N+](=O)[O-] [Benfluralin [Benefin]]
- % Dead cells (vehicle subtracted) [2]: -1.412%

Structure (SMILES): Nc1c(Cl)c(F)nc(OCC(=O)O)c1Cl [Fluroxypyr]
- % Dead cells (vehicle subtracted) ([2]; mouse, 24 h, 10 µM): -1.905%

Structure (SMILES): CSc1nnc(C(C)(C)C)c(=O)n1N [Metribuzin]
- % Dead cells (vehicle subtracted) [2]: -0.1172%

Structure (SMILES): O=C(NC(=O)c1c(F)cccc1F)Nc1ccc(OC(F)(F)C(F)OC(F)(F)F)c(Cl)c1 (centres unmarked) [Novaluron]
- % Dead cells (vehicle subtracted) [2]: -1.142%

Structure (SMILES): CCN(CC)C(=O)SCc1ccc(Cl)cc1 [Thiobencarb]
- % Dead cells (vehicle subtracted) ([2]; mouse, 24 h, 10 µM): -1.522%
